Source: patent US20040067889A1, “Stabilization of brain natriuretic peptide (BNP) in blood samples, methods and compositions related thereto” (priority 2002, published 2004)

Test system: endogenous proteases
Assay: Stability of synthetic BNP-32 spiked into normal human plasma with protease inhibitors (chemiluminescent BNP immunoassay)
Type: biochemical
Conditions: for efficacy in stabilizing BNP (in words): Table 11, inhibitors at usual functional concentrations
[1] = IHPP + 10 ng/ml BNP, 4° C., AEBSF 200 μg/ml, antipain 100 μg/ml, benzamidine 14 mM, PPACK 50 μg/ml, or all four

SMILES | % Recovery vs 1st run (Time 0) | BNP, 1st run (Time 0) | BNP, 3 hours at 4° C. | BNP, 17 hours at 4° C. | BNP, 40 hours at 4° C. | BNP, 6 days at 4° C. | 1 week (RLU) [1] | 2 weeks (RLU) [1] | 4 weeks % Signal Recovered [1] | 4 weeks (RLU) [1] | 72 hrs (RLU) [1] | 22 days (RLU) [1] | Day 0 (RLU) [1] | efficacy in stabilizing BNP (in words)
NCCc1ccc(S(=O)(=O)F)cc1 [AEBSF, 4-(2-aminoethyl)benzenesulfonylfluoride] | 85.2% | 741.7 pg/mL | 768.6 pg/mL | 715.2 pg/mL | 735.7 pg/mL | 631.9 pg/mL | 2504809 RLU | 4241 RLU | 0.1% | 2434 RLU | 3249767 RLU | 3812 RLU | 4079471 RLU | intermediate efficacy
NC(N)=NCCC[C@H](NC(=O)[C@@H]1CCCN1C(=O)[C@H](N)Cc1ccccc1)C(=O)CCl [PPRACK, D-Phe-Pro-Arg-chloromethylketone] | 100.5% | 892.0 pg/mL | 894.6 pg/mL | 957.6 pg/mL | 939.7 pg/mL | 896.2 pg/mL |  |  |  |  |  |  |  | act as efficiently as antipain, leupeptin and PPACK
